# Source: patent publication US8680290B2, “Isoxazoline derivatives and their use as herbicides” (Syngenta Limited, priority 2004, dated 2014)
# Tested on: Monocotyledonous and dicotyledonous test plants
# Experiment: Example B1 herbicidal action, application pre-emergence (Table B1b)
# Assay type: in vivo
# Conditions: 250 g/ha, evaluated after 4 weeks
# Experimental: Monocotyledonous and dicotyledonous test plants were sown in seed trays in standard soil. Immediately after sowing (pre-emergence) or after 8 to 9 days cultivation (post-emergence), the test compounds were applied by spraying in the form of an aqueous solution derived from the formulation of the technical active ingredient in 0.6 ml acetone and 45 ml formulation solution containing 10.6% Emulsogen EL (CAS RN 61791-12-6), 42.2% N-methylpyrrolidone, 42.2% dipropylene glycol monomethyl ether (CAS RN 34590-94-8) and 0.2% X-77 (CAS RN 11097-66-8). The test plants were then grown in a greenhouse under optimum conditions. After a test duration of 3 weeks (post-emergence) or 4 weeks (pre-emergence), the test was evaluated (10=total damage to plant, 0=no damage to plant).
SMILES,"herbicidal action (damage rating 0-10), Amaranthus","herbicidal action (damage rating 0-10), Digitaria","herbicidal action (damage rating 0-10), Panicum","herbicidal action (damage rating 0-10), Setaria","herbicidal action (damage rating 0-10), Sida"
Cc1cc(C(F)(Cl)S(=O)(=O)C2=NOC(C)(C)C2)no1 (stereo not shown) [4.01],8,8,8,8,8
Cc1cc(C(F)S(=O)(=O)C2=NOC(C)(C)C2)no1 (stereo not shown) [4.02],10,8,10,7,0
Cc1cc(C(F)(F)S(=O)(=O)C2=NOC(C)(C)C2)no1 [4.03],9,10,–,10,7
CC1(C)CC(S(=O)(=O)C(CC=C(F)F)c2c(F)cccc2F)=NO1 (stereo not shown) [Compound No. 1.04],0,7,5,2,0
CC1(C)CC(S(=O)(=O)C(C(=O)C2CC2)c2c(F)cccc2F)=NO1 (stereo not shown) [Compound No. 1.54],0,8,8,8,0
CC1(C)CC(S(=O)(=O)C(C(=O)C(F)F)c2c(F)cccc2F)=NO1 (stereo not shown) [Compound No. 1.57],9,8,10,8,6
C=C(OC(C)=O)C(Cl)(c1c(F)cccc1F)S(=O)(=O)C1=NOC(C)(C)C1 (stereo not shown) [Compound No. 1.58],5,8,9,7,3
CC1(C)CC(S(=O)(=O)C(C(=O)CCl)c2c(F)cccc2F)=NO1 (stereo not shown) [Compound No. 1.60],7,9,10,9,0
"CC(=O)O/C(C)=C(/c1c(F)cccc1F)S(=O)(=O)C1=NOC(C)(C)C1 [Compound No. 1.98, acetic acid 2-(2,6-difluoro-phenyl)-2-(5,5-dimethyl-4,5-dihydroisoxazole-3-sulfonyl)-1-methyl-vinyl ester]",7,8,9,9,4
"COc1c(C(F)(F)S(=O)(=O)C2=NOC(C)(C)C2)c(C(F)(F)F)nn1C [Compound No. 2.23, 3-[difluoro-(5-methoxy-1-methyl-3-trifluoromethyl-1H-pyrazol-4-yl)-methanesulfonyl]-5,5-dimethyl-4,5-dihydroisoxazole]",8,7,8,9,3
Cc1nn(C)c(OCC(F)(F)F)c1C(F)S(=O)(=O)C1=NOC(C)(C)C1 (stereo not shown) [Compound No. 2.24],10,10,–,10,5
"Cn1nc(C(F)(F)F)c(C([S+]([O-])C2=NOC(C)(C)C2)C(F)(F)F)c1OCC(F)(F)F (stereo not shown) [Compound No. 2.35, 5,5-dimethyl-3-{2,2,2-trifluoro-1-[1-methyl-5-(2,2,2-trifluoro-ethoxy)-3-trifluoromethyl-1H-pyrazol-4-yl]-ethanesulfinyl}-4,5-dihydro-isoxazole]",10,10,9,5,0
"Cc1nsc(C#N)c1C(F)S(=O)(=O)C1=NOC(C)(C)C1 (stereo not shown) [Compound No. 3.01, 4-[(5,5-dimethyl-4,5-dihydroisoxazole-3-sulfonyl)-fluoromethyl]-3-methyl-isothiazole-5-carbonitrile]",7,8,10,7,0
"Cc1nsc(C#N)c1C(F)(F)S(=O)(=O)C1=NOC(C)(C)C1 [Compound No. 3.02, 4-[(5,5-dimethyl-4,5-dihydroisoxazole-3-sulfonyl)-difluoro-methyl]-3-methyl-isothiazole-5-carbonitrile]",7,10,10,10,0
Cc1noc(C)c1C(Cl)S(=O)(=O)C1=NOC(C)(C)C1 (stereo not shown) [Compound No. 3.03],7,9,10,10,0
Cc1noc(C)c1C(Cl)(Cl)S(=O)(=O)C1=NOC(C)(C)C1 [Compound No. 3.04],3,9,10,9,0
"COc1cc(C(Cl)S(=O)(=O)C2=NOC(C)(C)C2)on1 (stereo not shown) [Compound No. 5.01, 5-[chloro-(5,5-dimethyl-4,5-dihydroisoxazole-3-sulfonyl)-methyl]-3-methoxy-isoxazole]",0,8,–,8,2
